Laboratory results as given in article PMC7377239, “Cardiovascular Effects of Polychlorinated Biphenyls and Their Major Metabolites” (Environmental Health Perspectives, 2020).
Where two headings read alike, the source gives them in different places.

Tests used:
[1] = system: iCell endothelial cells (human iPSC-derived ECs); experiment: Tube formation (tubulogenesis) assay in iCell endothelial cells, 18 h; type: cell-based; conditions: Homo sapiens, Endothelial cell, iPSC-EC tube formation, 18 hr; for activity at 0.1 µM: 0.10 µM; for minimal effective concentration: top concentration 100.00 µM
Experimental: The culture conditions of iCell®-endothelial cells were as reported elsewhere ([Iwata et al. 2017]). Briefly, T75 flasks were coated with a fibronectin solution ( 3 μg/cm^2 ) followed by incubation for 1–2 h. Cells were thawed for 3 min in a 37°C water bath. Thawed cells were added to maintenance medium made of VascuLife VEGF Medium Complete Kit, excluding the supplied FBS, and iCell® Endothelial Cells Medium Supplement. The final formulation of the maintenance medium is detailed in ([Iwata et al. 2017]). The aliquoted fibronectin solution was aspirated from the T75 flasks, and cells were seeded at 1.0×10^4 cells/cm^2 . Cells were maintained at 37°C and 5% CO2 with media changes occurring every 2 d and passaged every 3–4 d using TrypLE™ Express. All experiments were conducted on cells between passages 1 and 5.
(§1) Tube formation assays were performed on Geltrex™ LDEV-free reduced growth factor basement membrane using both iCell®-endothelial cells and HUVECs in 384-well format exactly as detailed in Iwata et al. ([2017]). Negative controls included media-only and vehicle control (i.e., 0.5% vol/vol DMSO in cell culture media) wells. Positive assay controls were consistent with previously published reports ([Iwata et al. 2017]) and included TAB ( 50μM ) as a cytotoxic control, and nocodazole ( 0.01–1μM ), suramin ( 0.5–50μM ), histamine ( 0.1–100μM ), and chloroquine ( 1–500μM ) as chemicals associated with specific effects on ECs. Each test chemical was screened in triplicate for each concentration. Briefly, for iCell®-endothelial cells, starvation media consisted of VascuLife® basal medium with 4 mM L-glutamine LifeFactor and 0.1% iCell®-endothelial cells medium supplement. To counter dilution effects, a 2× concentration of the HUVEC maintenance medium supplemented with additional VEGF was created (EGM™-2 BulletKits™ at 2× concentration; also the VEGF component was replaced with 12.5 ng/mL VEGF). Geltrex™ LDEV-free reduced growth factor basement membrane was thawed overnight and dispensed into 384-well plates ( 10μL/well ) with tapping and rotating to evenly coat. The plates were incubated for 1 h in a cell culture incubator at 37°C and 5% CO2 . A 2× PCB plate (containing all of the PCBs and metabolites in dose–response) was prepared in basal media and added, 25μL per well, to the Geltrex™ coated plates. On separate plates, cells were seeded 7,500 (iPSC- ECs) or 3,500 (HUVEC) cells/well. Cells were exposed to chemicals overnight at 37°C and 5% CO2 and stained with 3× concentration of calcein AM ( 25μL /well, 6μmol/L ) for 15 min before imaging. Images were captured at 4× magnification with the FITC filter (calcein AM). Images were analyzed with the angiogenesis module software within MetaXpress™ (Molecular Devices).
(§2) Phenotypic responses were quantitatively assessed using concentration–response modeling as detailed elsewhere ([Sirenko et al. 2017]). Briefly, phenotypic readouts were normalized to vehicle controls and fit to a four-parameter logistic model in R studio software (version 3.1.1; R Development Core Team). Following EPA guidance on dose–response modeling, a cutoff of one standard deviation across means of vehicle control (i.e., 0.5% vol/vol DMSO in cell culture media) wells was applied to determine the point-of-departure (POD) values ([U.S. EPA 2012]). In the absence of a concentration–response, the highest tested concentration (i.e., 100μM ) was assigned as “no observable adverse effect level.” The concentration–response assessment R script, as well as templates for vehicle and concentration–response data, are available as a supplement to Sirenko et al. ([2017]). The ability of physicochemical properties to predict differences in PODs were evaluated by multiregression and mixed-effects modeling using R.

HUVECs = experiment: Tube formation (tubulogenesis) assay in HUVECs, 18 h; type: cell-based, human; conditions: Homo sapiens, HUVEC, 18 h, HUVECs; for activity at 0.1 µM: 0.10 µM; for minimal effective concentration: top concentration 100.00 µM
Experimental: Similar to the cultivation of iCell®-endothelial cells, HUVEC maintenance and experimentation are detailed elsewhere ([Iwata et al. 2017]). Briefly, HUVECs were thawed, seeded, and grown in T75 tissue culture flasks in Medium 199 with EGM™-2 BulletKits™. HUVECs were incubated at regular cell culture conditions, 37°C and 5% CO2 , and passaged every 2–3 d using TrypLE™ Express. To ensure adequate endothelial function, experiments were performed with cells between passages 1 and 5.
as §1, §2

[2] = 0.00 µM control = 100.00, read-out: endo.mtl.18hr
[3] = 0.00 µM control = 100.00, read-out: endo.tlps.18hr
[4] = 0.00 µM control = 100.00, read-out: endo.tta.18hr
[5] = 0.00 µM control = 100.00, read-out: endo.ttl.18hr
[6] = 0.00 µM = 100.00, read-out: huvec.mtl.18hr
[7] = 0.00 µM = 100.00, read-out: huvec.tlps.18hr
[8] = 0.00 µM = 100.00, read-out: huvec.tta.18hr
[9] = 0.00 µM = 100.00, read-out: huvec.ttl.18hr

Work on `Oc1ccc(O)c(-c2ccc(Cl)cc2)c1` [2',5'-DiOH PCB3] yielded an activity at 0.01 µM [1, 2] of 99.4%, an activity at 0.01 µM [1, 3] of 100% and an activity at 0.01 µM [1, 4] of 127%. For the same compound, the activity at 0.01 µM [1, 5] was 115%, the activity at 0.1 µM [1, 2] was 104% and the activity at 0.1 µM [1, 3] was 103%. For the same compound, the activity at 0.1 µM [1, 4] was 104%, the activity at 0.1 µM [1, 5] was 98.5% and the activity at 1 µM [1, 2] was 62%. For the same compound, the activity at 1 µM [1, 3] was 66.5%, the activity at 1 µM [1, 4] was 60.7% and the activity at 1 µM [1, 5] was 55%. The activity at 10 µM [1, 2] was 61.7%, the activity at 10 µM [1, 3] was 30.6% and the activity at 10 µM [1, 4] was 64.9%. For the same compound, the activity at 10 µM [1, 5] was 63%, the activity at 100 µM [1, 2] was 58.4% and the activity at 100 µM [1, 3] was 7.76%. The activity at 100 µM [1, 4] was 0.41%, the activity at 100 µM [1, 5] was 0.74% and the minimal effective concentration ([1]; read-out: endo.mtl.18hr POD) was 0.47 µM. It also gave a minimal effective concentration ([1]; read-out: endo.tlps.18hr POD) of 0.53 µM, a minimal effective concentration ([1]; read-out: endo.tta.18hr POD) of 1.63 µM and a minimal effective concentration ([1]; read-out: endo.ttl.18hr POD) of 1.51 µM. For the same compound, the activity at 0.01 µM (HUVECs; [6]) was 99%, the activity at 0.01 µM (HUVECs; [7]) was 90.3% and the activity at 0.01 µM (HUVECs; [8]) was 127%. For the same compound, the activity at 0.01 µM (HUVECs; [9]) was 123%, the activity at 0.1 µM (HUVECs; [6]) was 104% and the activity at 0.1 µM (HUVECs; [7]) was 135%. For the same compound, the activity at 0.1 µM (HUVECs; [8]) was 107%, the activity at 0.1 µM (HUVECs; [9]) was 107% and the activity at 1 µM (HUVECs; [6]) was 91.9%. The activity at 1 µM (HUVECs; [7]) was 93.2%, the activity at 1 µM (HUVECs; [8]) was 87.2% and the activity at 1 µM (HUVECs; [9]) was 90.1%. For the same compound, the activity at 10 µM (HUVECs; [6]) was 64.1%, the activity at 10 µM (HUVECs; [7]) was 21.9% and the activity at 10 µM (HUVECs; [8]) was 19.3%. It also gave an activity at 10 µM (HUVECs; [9]) of 19.9%, an activity at 100 µM (HUVECs; [6]) of 57.8% and an activity at 100 µM (HUVECs; [7]) of 9.87%. It also gave an activity at 100 µM (HUVECs; [8]) of 0.82%, an activity at 100 µM (HUVECs; [9]) of 1.52% and a minimal effective concentration (HUVECs; read-out: huvec.mtl.18hr POD) of 1.26 µM. It also gave a minimal effective concentration (HUVECs; read-out: huvec.tlps.18hr POD) of 1.55 µM, a minimal effective concentration (HUVECs; read-out: huvec.tta.18hr POD) of 1.39 µM and a minimal effective concentration (HUVECs; read-out: huvec.ttl.18hr POD) of 1.23 µM.
